# In US20140128357A1, “METHODS OF PRODUCING AND USING BRASSINOSTEROIDS TO PROMOTE GROWTH, REPAIR AND MAINTENANCE OF SKELETAL MUSCLE AND SKIN” (Rutgers University, priority 2010, published 2014):
# Tests used:
# [1] = Body composition and blood biochemistry, rats on normal diet, 24 d oral HB (Protocol 1); format: in vivo, rat; details: for Bone mineral content / Fat mass / Lean mass / change in fat mass vs control / increase in lean body mass vs control: DEXA
# Procedure: Six-week-old male Wistar rats (180-220 g, Charles River Laboratories, MA) were housed in individual chambers in a room maintained at a constant room temperature with 12 h light-dark cycle. Animals had free access to food and water. Animals were allowed to adapt to new conditions for 7 d and handling the animals was carried out daily during this time to reduce the stress of physical manipulation. Animals were randomized into groups according to bodyweight 1 d prior to dosing.
# The body weight of each animal and the total amount of food consumed (accounted for spillage) were recorded every 2 d for the duration of the experiment. At the end of the experiment, blood was collected by heart puncture after CO2 inhalation and animal body composition was assessed by DEXA dual-energy X-ray absorptiometry analysis using a Lunar Prodigy Densitometer (GE Healthcare, Waukesha, Wis.). At necropsy, tissue weights were recorded. Tissue samples were collected by snap-freezing in liquid nitrogen and stored at −80° C. for further studies. Total RNA was isolated using Trizol, its quantity and purity were determined using a NanoDrop (Nanodrop Technologies, Wilmington, Del.).
# Blood samples were taken from overnight-fasted animals by heart puncture, collected in EDTA-coated tubes, centrifuged 1,500 g for 20 min, and separated plasma was stored at −80° C. until analysis. Glucose was measured in blood samples using a Lifescan glucometer (Johnson and Johnson, New Brunswick, N.J.). […] Plasma triglycerides and total cholesterol were measured by enzymatic colorimetric assays (Wako Diagnostics, Richmond, Va.). Total testosterone in plasma samples was quantified by an ELISA assay (DRG Diagnostics, Marburg, Germany).
# [2] = tested on: fully differentiated L6 rat skeletal myotubes; experiment: MTT cell viability in L6 myotubes; format: cell-based; details: up to 25 μM
# Procedure: In various aspects, cell viability is measured and the effects of doses of compound and test reagents are tested in cell lines. In some aspects, cell viability was measured by the MTT (3-(4,5-Dimethylthiazol-2-yl)-2,5-diphenyltetrazolium bromide) assay in triplicate (Mosmann et al., J. Immunol. Methods 65:55-63, 1983) and quantified spectrophotometrically at 550 nm using a microplate reader (Molecular Devices, Sunnyvale, Calif.).
compound,measurement,setting,value
"CC[C@@H](C(C)C)[C@H](O)[C@@H](O)[C@@H](C)[C@H]1CC[C@H]2[C@@H]3COC(=O)[C@H]4C[C@H](O)[C@H](O)C[C@]4(C)[C@H]3CC[C@]12C [Compound 1, (22S,23S,24S)-2α,3α,22,23-tetrahydroxy-24 ethyl-β-homo-7-oxo-5α-cholestane-6-one]",Body weight,[1]; 20 mg/kg oral daily 24 d,324.3 ± 11.5 g
same,Body weight gain,[1]; 20 mg/kg oral daily 24 d,126.6 ± 7.1 g
same,Gastrocnemius muscle,[1]; 20 mg/kg oral daily 24 d,2.07 ± 0.06 g
same,increase in gastrocnemius muscle mass,[1]; 20 mg/kg oral daily 24 d,15.6%
same,"increase of total body weight gain relative to initial body weight, compared with vehicle-treated controls",[1]; 20 mg/kg oral daily 24 d,18.3%
same,Bone mineral content,[1]; 20 mg/kg oral daily 24 d,7.0 ± 0.3 g
same,Fat mass,[1]; 20 mg/kg oral daily 24 d,49.0 ± 4.3 g
same,Lean mass,[1]; 20 mg/kg oral daily 24 d,268.3 ± 9.0 g
same,change in fat mass vs control,[1]; 20 mg/kg oral daily 24 d,−3.9%
same,increase in lean body mass vs control,[1]; 20 mg/kg oral daily 24 d,7.0%
same,Body weight,[1]; 60 mg/kg oral daily 24 d,342.3 ± 4.9 g
same,Body weight gain,[1]; 60 mg/kg oral daily 24 d,135.7 ± 9.4 g
same,Gastrocnemius muscle,[1]; 60 mg/kg oral daily 24 d,2.13 ± 0.12 g
same,increase in gastrocnemius muscle mass,[1]; 60 mg/kg oral daily 24 d,19.0%
same,"increase of total body weight gain relative to initial body weight, compared with vehicle-treated controls",[1]; 60 mg/kg oral daily 24 d,26.8%
same,Bone mineral content,[1]; 60 mg/kg oral daily 24 d,7.4 ± 0.1 g
same,Fat mass,[1]; 60 mg/kg oral daily 24 d,48.5 ± 3.8 g
same,Lean mass,[1]; 60 mg/kg oral daily 24 d,286.5 ± 4.3 g
same,change in fat mass vs control,[1]; 60 mg/kg oral daily 24 d,−4.9%
same,increase in lean body mass vs control,[1]; 60 mg/kg oral daily 24 d,14.2%
same,toxicity to L6 myotubes (MTT assay and cytological observations),[2],no toxicity
